Source: PMC6033010, “A Targeted LC‐MS Strategy for Low‐Abundant HLA Class‐I‐Presented Peptide Detection Identifies Novel Human Papillomavirus T‐Cell Epitopes” (Proteomics, 2018)
Where a SMILES comes first, the peptide text is derived from it.

These compounds were tested against T1, HLA‐A2 (Homo sapiens, UniProt P04439, D140Y/D185E/D98H/E176V/E277Q/G131W/G231S/I119V/I121R/I166T/I218V/L300P/L318F/N151K/N90K/P208A/P217A/Q86G/Q94H/R138H/R169H/T345S) (assay: In vitro competition-based cellular binding assay). Conditions: acid-stripped BSM cells, β2M, 150 nM fluorescein-labeled reference peptide FLPSDC(Fl)FPSV, test peptide 0.78–100 μM, overnight 4 °C, flow cytometry; mean of at least three experimental replicates; read-out: Experimental binding affinity [IC50(μM)].
T1 construct: host or cells: BSM cells (HLA-A2+, HPV16-negative suspension cell line)
Protocol: In Vitro Competition Based Binding Assays: In vitro competition‐based binding assays were performed as described in ref. 30. In brief, BSM cells were treated with citric acid buffer to strip off naturally presented peptides. Cells were incubated overnight at 4 °C with β2M, a constant concentration (150 nM) of fluorescein‐labeled HLA‐A2‐binding reference peptide (FLPSDC(Fl)FPSV), and six different concentrations (0.78 –100 μM) of the respective investigated non‐labeled peptide, competing for HLA‐binding. Fluorescence was measured by flow cytometry and data processed with FlowJo 10 (TreeStar, Ashland, OR, USA). A logistic four‐parametric non‐linear regression calculation using SigmaPlot 13 (Systat‐Software, San José, CA, USA) was conducted to calculate binding affinity (IC50). […] The assay was performed with at least three biological replicates for binders and two for non‐binders.

**Q.** With `CSCC[C@H](NC(=O)[C@H](Cc1ccc(O)cc1)NC(=O)[C@H](CCC(=O)O)NC(=O)[C@H](Cc1c[nH]cn1)NC(=O)[C@H](CC(C)C)NC(=O)[C@@H](N)[C@@H](C)O)C(=O)N[C@@H](CC(C)C)C(=O)N[C@@H](CC(=O)O)C(=O)N[C@@H](CC(C)C)C(=O)N[C@@H](CCC(N)=O)C(=O)N1CCC[C@H]1C(=O)O` [E7_7–17] (H-TLHEYMLDLQP-OH) as the compound, how does the IC50 read?
**A.** Its IC50 is 19.3 µM.

**Q.** With `CC[C@H](C)[C@H](N)C(=O)N[C@@H](CCCNC(=N)N)C(=O)N[C@H](C(=O)N[C@@H](CC(C)C)C(=O)N[C@@H](CCC(=O)O)C(=O)N[C@@H](CC(=O)O)C(=O)N[C@@H](CC(C)C)C(=O)N[C@@H](CC(C)C)C(=O)N[C@@H](CCSC)C(=O)NCC(=O)N[C@H](C(=O)O)[C@@H](C)O)[C@@H](C)O` [E7_76–86] (H-IRTLEDLLMGT-OH) as the compound, how does the IC50 read?
**A.** Its IC50 is 31.9 µM.

**Q.** `CSCC[C@H](NC(=O)[C@@H](N)Cc1ccc(O)cc1)C(=O)N[C@@H](CC(C)C)C(=O)N[C@@H](CC(=O)O)C(=O)N[C@@H](CC(C)C)C(=O)N[C@@H](CCC(N)=O)C(=O)N1CCC[C@H]1C(=O)N[C@@H](CCC(=O)O)C(=O)N[C@H](C(=O)N[C@H](C(=O)N[C@@H](CC(=O)O)C(=O)O)[C@@H](C)O)[C@@H](C)O` [E7_11–21] was tested. Which IC50 did it give?
**A.** Its IC50 is 2.37 µM.

**Q.** How did the IC50 turn out when `CSCC[C@H](NC(=O)[C@@H](N)Cc1ccc(O)cc1)C(=O)N[C@@H](CC(C)C)C(=O)N[C@@H](CC(=O)O)C(=O)N[C@@H](CC(C)C)C(=O)N[C@@H](CCC(N)=O)C(=O)N1CCC[C@H]1C(=O)N[C@@H](CCC(=O)O)C(=O)O` [E7_11–18] (H-YMLDLQPE-OH) was run?
**A.** The IC50 was 8.07 µM.

**Q.** With `CSCC[C@H](NC(=O)[C@H](Cc1ccc(O)cc1)NC(=O)[C@@H](N)CCC(=O)O)C(=O)N[C@@H](CC(C)C)C(=O)N[C@@H](CC(=O)O)C(=O)N[C@@H](CC(C)C)C(=O)N[C@@H](CCC(N)=O)C(=O)N1CCC[C@H]1C(=O)N[C@@H](CCC(=O)O)C(=O)N[C@H](C(=O)O)[C@@H](C)O` [E7_10–19] as the compound, how does the IC50 read?
**A.** The IC50 was 45.3 µM.

**Q.** For `CSCC[C@H](NC(=O)[C@H](CC(C)C)NC(=O)[C@H](CC(C)C)NC(=O)[C@H](CC(=O)O)NC(=O)[C@H](CCC(=O)O)NC(=O)[C@H](CC(C)C)NC(=O)[C@@H](N)[C@@H](C)O)C(=O)NCC(=O)N[C@H](C(=O)O)[C@@H](C)O` [E7_78–86] (H-TLEDLLMGT-OH), which IC50 is on record?
**A.** Its IC50 is 64.6 µM.

**Q.** Which IC50 does the source give for `CSCC[C@H](N)C(=O)N[C@@H](CC(C)C)C(=O)N[C@@H](CC(=O)O)C(=O)N[C@@H](CC(C)C)C(=O)N[C@@H](CCC(N)=O)C(=O)N1CCC[C@H]1C(=O)N[C@@H](CCC(=O)O)C(=O)N[C@H](C(=O)O)[C@@H](C)O` [E7_12–19] (H-MLDLQPET-OH) here?
**A.** Its IC50 is 53.7 µM.

**Q.** Which IC50 does the source give for `CC[C@H](C)[C@H](NC(=O)CNC(=O)[C@H](CC(C)C)NC(=O)[C@@H](NC(=O)CNC(=O)[C@H](CCSC)NC(=O)[C@H](CC(C)C)NC(=O)[C@H](CC(C)C)NC(=O)[C@H](CC(=O)O)NC(=O)[C@@H](N)CCC(=O)O)[C@@H](C)O)C(=O)N[C@H](C(=O)O)C(C)C` [E7_80–90] (H-EDLLMGTLGIV-OH) here?
**A.** The IC50 was 14.2 µM.

**Q.** How did the IC50 turn out when `CC[C@H](C)[C@H](NC(=O)[C@H](CC(=O)O)NC(=O)[C@H](Cc1c[nH]cn1)NC(=O)[C@@H](NC(=O)[C@@H](NC(=O)[C@@H](NC(=O)[C@H](CCC(N)=O)NC(=O)[C@H](CC(C)C)NC(=O)[C@@H](N)CCC(=O)O)[C@@H](C)O)[C@@H](C)O)[C@@H](C)CC)C(=O)O` [E6_25–33] (H-ELQTTIHDI-OH) was run?
**A.** Its IC50 is 36.9 µM.

**Q.** With `CC[C@H](C)[C@H](NC(=O)CNC(=O)[C@H](CC(C)C)NC(=O)[C@@H](NC(=O)CNC(=O)[C@H](CCSC)NC(=O)[C@H](CC(C)C)NC(=O)[C@H](CC(C)C)NC(=O)[C@@H](N)CC(=O)O)[C@@H](C)O)C(=O)N[C@H](C(=O)O)C(C)C` [E7_81–90] (H-DLLMGTLGIV-OH) as the compound, how does the IC50 read?
**A.** The IC50 was 81 µM.

**Q.** With `CSCC[C@H](NC(=O)[C@H](CC(C)C)NC(=O)[C@H](CC(C)C)NC(=O)[C@H](CC(=O)O)NC(=O)[C@H](CCC(=O)O)NC(=O)[C@H](CC(C)C)NC(=O)[C@@H](NC(=O)[C@@H](N)CCCNC(=N)N)[C@@H](C)O)C(=O)NCC(=O)N[C@H](C(=O)O)[C@@H](C)O` [E7_77–86] as the compound, how does the IC50 read?
**A.** The IC50 was 66.9 µM.

**Q.** How did the IC50 turn out when `CSCC[C@H](NC(=O)[C@H](CC(C)C)NC(=O)[C@H](CC(C)C)NC(=O)[C@H](CC(=O)O)NC(=O)[C@H](CCC(=O)O)NC(=O)[C@H](CC(C)C)NC(=O)[C@@H](NC(=O)[C@@H](N)CCCNC(=N)N)[C@@H](C)O)C(=O)NCC(=O)N[C@H](C(=O)N[C@@H](CC(C)C)C(=O)O)[C@@H](C)O` [E7_77–87] (H-RTLEDLLMGTL-OH) was run?
**A.** The IC50 was 2.69 µM.
